Data taken from ChEMBL document CHEMBL4715742, “Design, synthesis and cytotoxic activities of novel 2,5-diketopiperazine derivatives” (Eur J Med Chem, 2016).

What was measured:
U-937 [1] = assay: Induction of apoptosis in human U-937 cells assessed as late apoptotic cells at 2 uM measured after 48 hrs by annexinV/FITC-propidium iodide staining based flow cytometry (reference value: 3.27 to 3.41 %); assay type: functional
K562 [2] = assay: Cytotoxicity against human K562 cells assessed as cell viability at 1.1 uM measured after 72 hrs by CCK8 assay relative to control; assay type: functional; settings: read-out: Activity
U-937 [3] = assay: Cytotoxicity against human U-937 cells assessed as cell viability at 3.3 uM measured after 72 hrs by CCK8 assay relative to control; assay type: functional; settings: read-out: Activity
K562 [4] = assay: Cytotoxicity against human K562 cells assessed as reduction in cell viability measured after 24 to 72 hrs by CCK8 assay; assay type: functional, cell-based; settings: dose 0.37-3.3 µM, time 24-72 hrs
K562 [5] = assay: Cytotoxicity against human K562 cells assessed as cell viability at 0.37 uM measured after 24 hrs by CCK8 assay relative to control; assay type: functional; settings: read-out: Activity
K562 [6] = assay: Cytotoxicity against human K562 cells assessed as cell viability at 1.1 uM measured after 24 hrs by CCK8 assay relative to control; assay type: functional; settings: read-out: Activity
K562 [7] = assay: Cytotoxicity against human K562 cells assessed as cell viability at 3.3 uM measured after 24 hrs by CCK8 assay relative to control; assay type: functional; settings: read-out: Activity
U-937 [8] = assay: Cytotoxicity against human U-937 cells assessed as reduction in cell viability measured after 72 hrs by CCK8 assay; assay type: functional, cell-based; settings: Homo sapiens, U-937, 72 h; read-out: IC50
U-937 [9] = assay: Induction of apoptosis in human U-937 cells assessed as necrotic cells at 1 uM measured after 48 hrs by annexinV/FITC-propidium iodide staining based flow cytometry (reference value: 0.794 to 0.955 %); assay type: functional
U-937 [10] = assay: Induction of apoptosis in human U-937 cells assessed as apoptotic ratio at 1 uM measured after 48 hrs by annexinV/FITC-propidium iodide staining based flow cytometry (reference value: 5.2 +/- 0.2 %); assay type: functional
U-937 [11] = assay: Induction of apoptosis in human U-937 cells assessed as viable cells at 2 uM measured after 48 hrs by annexinV/FITC-propidium iodide staining based flow cytometry (reference value: 93.7 to 94.2 %); assay type: functional; settings: read-out: Activity
K562 [12] = assay: Cytotoxicity against human K562 cells assessed as cell viability at 3.3 uM measured after 72 hrs by CCK8 assay relative to control; assay type: functional; settings: read-out: Activity
U-937 [13] = assay: Cytotoxicity against human U-937 cells assessed as cell viability at 1.1 uM measured after 24 hrs by CCK8 assay relative to control; assay type: functional; settings: read-out: Activity
U-937 [14] = assay: Induction of apoptosis in human U-937 cells assessed as viable cells at 0.5 uM measured after 24 hrs by annexinV/FITC-propidium iodide staining based flow cytometry (reference value: 95 to 95.1 %); assay type: functional; settings: read-out: Activity
U-937 [15] = assay: Induction of apoptosis in human U-937 cells assessed as necrotic cells at 0.5 uM measured after 48 hrs by annexinV/FITC-propidium iodide staining based flow cytometry (reference value: 0.794 to 0.955 %); assay type: functional
K562 [16] = assay: Cytotoxicity against human K562 cells assessed as cell viability at 3.3 uM measured after 48 hrs by CCK8 assay relative to control; assay type: functional; settings: read-out: Activity
U-937 [17] = assay: Cytotoxicity against human U-937 cells assessed as reduction in cell viability at 0.37 to 3.3 uM by CCK8 assay; assay type: functional, cell-based; settings: dose 0.37-3.3 µM, TDE = time-dependent effect
U-937 [18] = assay: Induction of apoptosis in human U-937 cells assessed as early apoptotic cells at 2 uM measured after 24 hrs by annexinV/FITC-propidium iodide staining based flow cytometry (reference value: 1.28 to 1.68 %); assay type: functional
HeLa = assay: Cytotoxicity against human HeLa cells assessed as reduction in cell viability measured after 72 hrs by CCK8 assay; assay type: functional, cell-based; settings: Homo sapiens, HeLa, 72 h; read-out: IC50
U-937 [19] = assay: Cytotoxicity against human U-937 cells assessed as cell viability at 0.37 uM measured after 24 hrs by CCK8 assay relative to control; assay type: functional; settings: read-out: Activity
U-937 [20] = assay: Induction of apoptosis in human U-937 cells assessed as viable cells at 0.5 uM measured after 48 hrs by annexinV/FITC-propidium iodide staining based flow cytometry (reference value: 93.7 to 94.2 %); assay type: functional; settings: read-out: Activity
U-937 [21] = assay: Cytotoxicity against human U-937 cells assessed as reduction in cell viability measured after 24 to 72 hrs by CCK8 assay; assay type: functional, cell-based; settings: dose 0.37-3.3 µM, time 24-72 hrs
U-937 [22] = assay: Induction of apoptosis in human U-937 cells assessed as early apoptotic cells at 2 uM measured after 48 hrs by annexinV/FITC-propidium iodide staining based flow cytometry (reference value: 1.78 to 1.88 %); assay type: functional
U-937 [23] = assay: Induction of apoptosis in human U-937 cells assessed as viable cells at 1 uM measured after 48 hrs by annexinV/FITC-propidium iodide staining based flow cytometry (reference value: 93.7 to 94.2 %); assay type: functional; settings: read-out: Activity
MCF7 = assay: Cytotoxicity against human MCF7 cells assessed as reduction in cell viability measured after 72 hrs by CCK8 assay; assay type: functional, cell-based; settings: Homo sapiens, MCF7, 72 h; read-out: IC50
U-937 [24] = assay: Induction of apoptosis in human U-937 cells assessed as apoptotic ratio at 1 uM measured after 24 hrs by annexinV/FITC-propidium iodide staining based flow cytometry (reference value: 3.7 +/- 0.3 %); assay type: functional
U-937 [25] = assay: Induction of apoptosis in human U-937 cells assessed as early apoptotic cells at 0.5 uM measured after 48 hrs by annexinV/FITC-propidium iodide staining based flow cytometry (reference value: 1.78 to 1.88 %); assay type: functional
U-937 [26] = assay: Induction of apoptosis in human U-937 cells assessed as late apoptotic cells at 0.5 uM measured after 24 hrs by annexinV/FITC-propidium iodide staining based flow cytometry (reference value: 2.18 to 2.22 %); assay type: functional
U-937 [27] = assay: Cytotoxicity against human U-937 cells assessed as cell viability at 3.3 uM measured after 24 hrs by CCK8 assay relative to control; assay type: functional; settings: read-out: Activity
U-937 [28] = assay: Induction of apoptosis in human U-937 cells assessed as late apoptotic cells at 1 uM measured after 48 hrs by annexinV/FITC-propidium iodide staining based flow cytometry (reference value: 3.27 to 3.41 %); assay type: functional
U-937 [29] = assay: Induction of apoptosis in human U-937 cells assessed as viable cells at 2 uM measured after 24 hrs by annexinV/FITC-propidium iodide staining based flow cytometry (reference value: 95 to 95.1 %); assay type: functional; settings: read-out: Activity
U-937 [30] = assay: Cytotoxicity against human U-937 cells assessed as cell viability at 0.37 uM measured after 72 hrs by CCK8 assay relative to control; assay type: functional; settings: read-out: Activity
HT-29 = assay: Cytotoxicity against human HT-29 cells assessed as reduction in cell viability measured after 72 hrs by CCK8 assay; assay type: functional, cell-based; settings: Homo sapiens, HT-29, 72 h; read-out: IC50
DU-145 = assay: Cytotoxicity against human DU-145 cells assessed as reduction in cell viability measured after 72 hrs by CCK8 assay; assay type: functional, cell-based; settings: Homo sapiens, DU-145, 72 h; read-out: IC50
U-937 [31] = assay: Cytotoxicity against human U-937 cells assessed as cell viability at 1.1 uM measured after 72 hrs by CCK8 assay relative to control; assay type: functional; settings: read-out: Activity
U-937 [32] = assay: Induction of apoptosis in human U-937 cells assessed as apoptotic ratio at 0.5 uM measured after 24 hrs by annexinV/FITC-propidium iodide staining based flow cytometry (reference value: 3.7 +/- 0.3 %); assay type: functional

Work on C=CCn1c(=O)/c(=C/CCCC)[nH]c(=O)/c1=C/c1ccc(OC)cc1 yielded an Activity (U-937 [1]) of 35.1%, a viability at 1.1 µM (K562 [2]) of 17.3% and a viability at 3.3 µM (U-937 [3]) of 0%. The Activity (K562 [4]) was “Dose-dependent effect”, the viability at 0.37 µM (K562 [5]) was 87.8% and the viability at 1.1 µM (K562 [6]) was 50%. The viability at 3.3 µM (K562 [7]) was 31%, the IC50 (U-937 [8]) was 360 nM and the Activity (U-937 [9]) was 1.04%. The Activity (U-937 [10]) was 25.8%, the viability at 2 µM (U-937 [11]) was 52.7% and the viability at 3.3 µM (K562 [12]) was 3.5%. It also gave a viability at 1.1 µM (U-937 [13]) of 17.4%, a viability at 0.5 µM (U-937 [14]) of 88.4% and an Activity (U-937 [15]) of 1.05%. The viability at 3.3 µM (K562 [16]) was 8.6%, the Activity (U-937 [17]) was “Tde” and the Activity (U-937 [18]) was 9.66%. For the same molecule, the IC50 (HeLa) was 900 nM, the viability at 0.37 µM (U-937 [19]) was 70.5% and the viability at 0.5 µM (U-937 [20]) was 81.4%. The Activity (U-937 [21]) was “Dose-dependent effect”, the Activity (U-937 [22]) was 9.76% and the viability at 1 µM (U-937 [23]) was 73.1%. For the same molecule, the IC50 (MCF7) was 1900 nM, the Activity (U-937 [24]) was 16% and the Activity (U-937 [25]) was 7.77%. For the same molecule, the Activity (U-937 [26]) was 6.11%, the viability at 3.3 µM (U-937 [27]) was 1.6% and the Activity (U-937 [28]) was 14.5%. For the same molecule, the viability at 2 µM (U-937 [29]) was 77.9%, the viability at 0.37 µM (U-937 [30]) was 58.7% and the IC50 (HT-29) was 1200 nM. For the same molecule, the IC50 (DU-145) was 1700 nM, the viability at 1.1 µM (U-937 [31]) was 3.3% and the Activity (U-937 [32]) was 10.4%.
